# According to patent US20230202990A1, “CYCLOHEXYL SUBSTITUTED TRIAZOLES” (Hoffmann-La Roche Inc., priority 2020, published 2023):
# Biological target: T1, human V1a receptor (Homo sapiens, UniProt P37288)
# T1 construct: expressed in transfected cells; host or cells: HEK293 cells, transiently transfected; cell membranes
# Test: human V1a receptor binding studies (3H-Vasopressin SPA, HEK293 cell membranes)
# Conditions: competition with 3H-Vasopressin on membranes of HEK293 cells transiently transfected with human V1a receptor; Ki by Cheng-Prussoff equation; read-out: pKi (hV1a) (converted)
# Experimental: The human V1a receptor was cloned by RT-PCR from total human liver RNA. The coding sequence was subcloned in an expression vector after sequencing to confirm the identity of the amplified sequence. […] Cell membranes were prepared from HEK293 cells transiently transfected with the expression vector and grown in 20 liter fermenters with the following protocol.
# 50 g of cells are re-suspended in 30 ml freshly prepared ice cold Lysis buffer (50 mM HEPES, 1 mM EDTA, 10 mM MgCl2 adjusted to pH= 7.4 + complete cocktail of protease inhibitor (Roche Diagnostics)). Homogenized with Polytron for Imin and sonicated on ice for 2x 2 minutes at 80% intensity (Vibracell sonicator). The preparation is centrifuged 20 min at 500 g at 4° C., the pellet is discarded and the supernatant centrifuged 1 hour at 43 ′000g at 4° C. (19 ′000rpm). The pellet is re-suspended in 12.5 ml Lysis buffer+12.5 ml Sucrose 20% and homogenized using a Polytron for 1-2 min. The protein concentration is determined by the Bradford method and aliquots are stored at -80° C. until use. For binding studies 60 mg Yttrium silicate SPA beads (Amersham) are mixed with an aliquot of membrane in binding buffer (50 mM Tris, 120 mM NaCl, 5 mM KCl, 2 mM CaCl2, 10 mM MgCl2) for 15 minutes with mixing. 50 µl of bead/membrane mixture is then added to each well of a 96 well plate, followed by 50 µl of 4 nM 3H-Vasopressin (American Radiolabeled Chemicals). For total binding measurement 100 µl of binding buffer are added to the respective wells, for non-specific binding 100 µl of 8.4 mM cold vasopressin and for compound testing 100 µl of a serial dilution of each compound in 2% DMSO. The plate is incubated 1 h at room temperature, centrifuged 1 min at 1000 g and counted on a Packard Top-Count. Non-specific binding counts are subtracted from each well and data is normalized to the maximum specific binding set at 100%. To calculate an IC50 the curve is fitted using a non-linear regression model (XLfit) and the Ki is calculated using the Cheng-Prussoff equation.
# T1 sequence (P37288 whole entry): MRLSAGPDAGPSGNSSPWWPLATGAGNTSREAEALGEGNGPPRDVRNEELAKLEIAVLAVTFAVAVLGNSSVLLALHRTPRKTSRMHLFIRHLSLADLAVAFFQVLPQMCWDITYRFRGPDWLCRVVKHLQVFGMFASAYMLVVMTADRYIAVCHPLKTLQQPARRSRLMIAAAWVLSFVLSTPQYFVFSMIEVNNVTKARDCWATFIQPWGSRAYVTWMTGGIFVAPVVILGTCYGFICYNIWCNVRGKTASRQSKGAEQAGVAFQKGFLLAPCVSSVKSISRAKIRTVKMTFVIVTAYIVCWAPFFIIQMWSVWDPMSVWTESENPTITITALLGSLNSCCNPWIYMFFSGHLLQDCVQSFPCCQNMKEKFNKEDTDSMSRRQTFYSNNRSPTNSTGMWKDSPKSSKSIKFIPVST
row,Ki [nM],SMILES
1,0.269,Cc1cc(Cl)ccc1-n1c(C)nnc1[C@H]1CC[C@H](Oc2ccccn2)CC1 [Example 13]
2,8.13,"COCc1nnc([C@H]2CC[C@H](Oc3cnccn3)CC2)n1-c1ccc(C)cc1 [Example 68, trans[4-[5-(Methoxymethyl)-4-(4-methylphenyl)-1,2,4-triazol-3-yl]cyclohexyl]oxypyrazine]"
3,3.39,"Cc1ccc(-n2c(C(F)F)nnc2[C@H]2CC[C@H](Oc3ccccn3)CC2)cc1 [Example 31, trans((4-(5-(Difluoromethyl)-4-(p-tolyl)-4H-1,2,4-triazol-3-yl)cyclohexyl)oxy)pyridine]"
4,7.59,"COc1cc(Cl)ccc1-n1c(C)nnc1[C@H]1CC[C@@H](Oc2ccccc2)CC1 [Example 2, cis(4-Chloro-2-methoxy-phenyl)-3-methyl-5-(4-phenoxy-cyclohexyl)-4H-[1,2,4]triazole]"
5,17,Cc1nnc([C@H]2CC[C@H](Oc3ccccn3)CC2)n1-c1ccc(Cl)cn1 [Example 23]
